Data set [1] relates to MES-SA/DX5 multi-drug resistant human uterine sarcoma cell line. Briefly: In vitro anti-cancer activity against MDR cell line MES-SA/DX5. The format is cell-based. The following applies: for IC50: MES-SA/DX5 cells, 72 hours, MTS. The protocol: (§1) The cell lines were maintained in RPM11640(GIBCO) supplemented with 10% FCS, 100 units/ml penicillin, 100 ug/ml streptomycin, and 2 mM L-glutamine. The cells were split every third day and diluted to a concentration of 2×10^5 cells/ml one day before experiment. All experiments were performed on exponentially growing cell culture. Cell densities were 2.5×10^4 cells/ml in all experiment.
(§2) A stock solution of Compound (1) was prepared by dissolving the compound at a concentration of 1 mM in 100% DMSO. Final concentrations were obtained by diluting the stock solution directly into the tissue culture medium. Cells were incubated with varying concentrations of compounds for 72 hours and the IC50 was determined by MTS (i.e. […]) assay. IC50 stands for the concentration of compound required to inhibit 50% tumor cell growth.
(§3) In vitro activity was determined in two MDR (Multi Drug Resistant) human cancer cell lines. HL-60/TX1000 was isolated in vitro by subculturing HL-60 in progressively higher concentration of Taxol. HL-60/TX1000 cells over-express mdr-1 mRNA and p-glycoprotein, as determined by western blot and immunofluorescence labeling with antiPGP antibodies. The cell is cross-resistant to Taxol, Vincristine, Adriamycin, Etoposide and Doxorubicin. MES-SA/Dx5 was established in the presence of increasing concentrations of Doxorubicin. […] MES-SA/Dx5 was purchased from ATCC.
(§4) The procedure for culturing the cells and assaying cancer cell growth inhibition were as described in Example 3.
(§5) The protocol described in Example 3 was used to assay inhibition by Compounds (2)-(10) on the growth of the multi-drug resistant cell lines MES-SA/DX5 and HL60/TX1000.

In data set [2] the test system is HL-60/TX1000 multi-drug resistant human myeloid leukemia cell line. The data set is described as follows: In vitro anti-cancer activity against MDR cell line HL-60/TX1000. The format is cell-based. The following applies: for IC50: Homo sapiens, HL-60/TX1000 cells, 72 hours, MTS. The protocol:
as §1, §2, §3, §4, §5

The subject of data set [3] is MDA435 human breast tumor. Briefly: Tumor growth inhibition assay, human breast tumor (MDA435) xenograft model, oral treatment. It is filed as in vivo, nude mice. The following applies: for body weight change / loss: nude mice with MDA435 tumors, oral, Compound (5) 25 mg/kg, Compound (3) 50 mg/kg; for tumor growth inhibition (FIG. 2): nude mice, 3 times a week for 3 weeks.

For data set [4], the system named is H2 (human leukemia). The data set is described as follows: In vitro anti-cancer activity, MTS assay, H2. The format is cell-based. The note with it: H2 cells, 72 hours. The protocol:
(§6) The in vitro activity of the compounds was determined in the following […] human cancer cell lines. MDA435 (human breast cancer), HL-60 (human myeloid leukemia), DU-145 (human prostate cancer), MES-SA (human uterine sarcoma), H2 (human leukemia) were obtained from ATCC (American Type of Culture Collection).
as §1, §2

The subject of data set [5] is DU-145 (human prostate cancer). Briefly: In vitro anti-cancer activity, MTS assay, DU-145. The following applies: DU-145 cells, 72 hours. The format is cell-based. The protocol: as §6, §1, §2
For data set [6], the system named is MCF-7 human breast tumor. Briefly: Tumor growth inhibition assay, human breast tumor (MCF-7) xenograft model. It is filed as in vivo, nude mice (CD-1 nu/nu). The following applies: nude mice; for tumor growth inhibition (FIG. 1): 3 times a week for 3 weeks.
For data set [7], the system named is MDA435 (human breast cancer). The data set is described as follows: In vitro anti-cancer activity, MTS assay, MDA435. The format is cell-based. The following applies: MDA-435 cells, 72 hours. On the procedure:
as §6, §1, §2

The subject of data set [8] is MES-SA (human uterine sarcoma). The data set is described as follows: In vitro anti-cancer activity, MTS assay, MES-SA. The note with it: MES-SA cells, 72 hours. It is filed as cell-based. The protocol:
as §6, §1, §2

Data set [9] concerns HL-60 (human myeloid leukemia). The data set is described as follows: In vitro anti-cancer activity, MTS assay, HL-60. It is filed as cell-based. The note with it: HL-60 cells, 72 hours. On the procedure:
as §6, §1, §2

The values that follow come from patent US20060004044A1, “3-glyoxylamideindoles for treating cancer” (Synta Pharmaceuticals Corp., priority 2001, published 2006).

As a reminder, the IC50 is the point on the concentration scale where inhibition reaches its midpoint. A low value points to higher potency.

As for `NC(=O)c1ccc(NC(=O)C(=O)c2cn(Cc3ccc(Cl)cc3)c3ccccc23)nc1` [(4)], the IC50 in data set [1] (Homo sapiens) and in data set [2] (HL60/TX1000) was 0.05 µM in each case.

In the case of `NC(=O)c1ccc(NC(=O)C(=O)c2cn(Cc3ccc(Cl)cc3)c3ccccc23)cc1` [Compound (3)], the 50% inhibitory concentration (IC50) in [1] (Homo sapiens) and in data set [2] (HL60/TX1000) was 0.05 µM each time. Besides, the “body weight change / loss” value in data set [3] is “without showing significant body weight loss”. Moreover, the “tumor growth inhibition (FIG. 2)” value in [3] (50 mg/kg orally by gavage) is given as “significantly inhibit tumor growth”.

As for `O=C(Nc1ccc2ncccc2c1)C(=O)c1cn(Cc2ccc(Cl)cc2)c2ccccc12` [Compound (5)], the IC50 in data set [1] (Homo sapiens) and in [2] (HL60/TX1000) was 0.05 µM in each case. Moreover, the “body weight change / loss” value in data set [3] is on record as “without showing significant body weight loss”. In addition, the “tumor growth inhibition (FIG. 2)” value in data set [3] (25 mg/kg orally by gavage) is on record as “significantly inhibit tumor growth”.

Consider `CN(c1ccccc1)n1cc(C(=O)C(=O)Nc2ccc3ncccc3c2)c2ccccc21` [(8)], for which the 50% inhibitory concentration (IC50) came to 0.1 µM in [1] (Homo sapiens, MES-SA/Dx5, 72 h) and 0.1 µM in data set [2] (HL60/TX1000, 72 h).

Take `O=C(Nc1ccon1)C(=O)c1cn(Cc2ccc(Cl)cc2)c2ccccc12` [(7)]: the 50% inhibitory concentration (IC50) turned out to be 0.08 µM in data set [1] (Homo sapiens) and 0.05 µM in data set [2] (HL60/TX1000).

As for `Cc1cc(NC(=O)C(=O)c2cn(Cc3ccc(C#N)cc3)c3ccccc23)sn1` [Compound (2)], the half-maximal inhibitory concentration (IC50) in [1] (Homo sapiens) and in data set [2] (HL60/TX1000) was 0.005 µM throughout.

As to `Cc1cc(NC(=O)C(=O)c2cn(Cc3ccc(Cl)cc3)c3ccccc23)sn1` [Compound (1), 2-(1-(4-Chloro-benzyl)-1-indol-3-yl)-N-(3-methyl-isothiazol-5-yl)-2-oxo-acetamide], the IC50 was found to be 0.005 µM in data set [4]; 0.01 µM in data set [1] (Homo sapiens); 0.005 µM in data set [5]; 0.005 µM in [7]; 0.005 µM in [8]; 0.01 µM in [2] (HL60/TX1000). In data set [9], this molecule yielded an IC50 of 0.005 µM. For the same molecule, the “anti-cancer activity against MDR cancer cell lines (in words)” value in data set [1] (MES-SA/DX5) and in data set [2] (HL-60/TX1000) was “high anti-cancer activity” each time. The “tumor growth inhibition (FIG. 1)” value in [6] (7.5 mg/kg intravenously) and in [6] (10 mg/kg intravenously) was “significantly inhibits tumor growth” each time. For the same molecule, the toxicity entry in data set [6] (7.5 and 10 mg/kg) was “acceptable toxicity”. Also, the “reduction of volume of tumors” value in data set [6] (intravenously every second day, 10 mg/kg) is “greater than 50%”.

As for `CC[C@]1(O)C[C@H]2CN(CCc3c([nH]c4ccccc34)[C@@](C(=O)OC)(c3cc4c(cc3OC)N(C=O)[C@H]3[C@@](O)(C(=O)OC)[C@H](OC(C)=O)[C@]5(CC)C=CCN6CC[C@]43[C@@H]65)C2)C1` [Vincristine, reference compound], the IC50 in data set [1] (Homo sapiens, MES-SA/Dx5, 72 h) was 1 to 5 µM; in data set [1], 1 µM.

Turning to `N#Cc1ccc(Cn2cc(C(=O)C(=O)Nc3ccncc3)c3ccccc32)cc1` [(9)], the half-maximal inhibitory concentration (IC50) in [1] (Homo sapiens) and in [2] (HL60/TX1000) was 0.05 µM each time.

As to `Cc1cc(NC(=O)C(=O)c2cn(Cc3ccc(Cl)cc3)c3ccccc23)no1` [(10)], the IC50 in [1] (Homo sapiens) and in [2] (HL60/TX1000) was 0.05 µM throughout.

As for `CSc1nnc(NC(=O)C(=O)c2cn(Cc3ccc(Cl)cc3)c3ccccc23)[nH]1` [(6)], the IC50 in data set [1] (Homo sapiens) and in data set [2] (HL60/TX1000) was 0.05 µM in each case.
